# Results reported in patent publication US20260098008A1, “COVALENT, CHEMOGENETIC ACTIVATORS FOR K2P POTASSIUM CHANNELS AND USES THEREOF” (THE REGENTS OF THE UNIVERSITY OF CALIFORNIA, priority 2022, published 2026).
# Changes are numbered by the printed parent chain.
# Key:
# [1] = biological target: T1, K2P2.1 (TREK-1) (Mus musculus, UniProt P97438); test: Whole-cell patch clamp in transfected HEK293 cells; format: cell-based; conditions: 20 μM; for Fold-activation (I activator/I control): whole-cell currents
# T1 construct: expressed in transfected cells; host or cells: Xenopus laevis oocytes injected with mRNA (pGEMHE/pMO vector)
# T1 sequence (P97438 1-411 isoform P97438-2): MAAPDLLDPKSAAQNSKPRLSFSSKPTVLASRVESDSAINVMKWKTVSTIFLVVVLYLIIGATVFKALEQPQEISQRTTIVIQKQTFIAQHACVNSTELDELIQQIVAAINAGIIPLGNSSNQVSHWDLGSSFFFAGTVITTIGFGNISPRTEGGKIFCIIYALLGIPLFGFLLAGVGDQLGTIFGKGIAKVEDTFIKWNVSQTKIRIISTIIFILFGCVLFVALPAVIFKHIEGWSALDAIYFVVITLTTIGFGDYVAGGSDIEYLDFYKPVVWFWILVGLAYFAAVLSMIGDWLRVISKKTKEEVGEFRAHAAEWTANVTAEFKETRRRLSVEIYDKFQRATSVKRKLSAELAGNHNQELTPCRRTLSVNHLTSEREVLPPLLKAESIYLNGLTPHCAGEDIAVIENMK
# From the text: (§1) Mouse K2P2.1 (TREK-1) (Genbank accession number: NP_034737.2), mouse K2P10.1 (TREK-2) (NM_001316665.1), mouse K2P4.1 (TRAAK) (NM_008431.3), human K2P4.1 (TRAAK) (NM_033310.2) and mouse K2P18.1(TRESK) (NM_207261.3) were used for this study. Point mutations were introduced by site-directed mutagenesis using custom primers and confirmed by sequencing before use. For studies using Xenopus oocytes, K2P channels were subcloned into a previously reported pGEMHE/pMO vector (46). For expression in HEK293 cells, mouse K2P2.1 (TREK-1) and mutants were expressed from a previously described pIRES2-EGFP vector in HEK293 cells (46,47). K2P2.1 (TREK-1) tandems were constructed by connecting the open reading frames for the individual subunits with a linker encoding the […] (SEQ ID NO: 19) sequence. Tandems used for HEK293 cells included an N-terminal HA tag ([…] (SEQ ID NO: 20)) on the first subunit.
# (§2) 50% confluent cells were co-transfected (in 35-mm diameter wells) with 10-100 ng of the K2P2.1 plasmid and 400 ng of an eGFP plasmid (for visualization) using LipofectAMINE 2000 (Invitrogen) for 24 h, after which the cells were either plated onto coverslips or the media exchanged with fresh media. Cells were plated onto Matrigel coated coverslips (BD Biosciences) 1-2 hours before experiments.
# (§3) Whole-cell patch-clamp experiments with K2P2.1(TREK-1) and mutants were carried out 24-48 h after transfection. Acquisition and analysis for voltage-clamp experiments were performed using pCLAMP10 and an Axopatch 200B amplifier (Molecular Devices). Current-clamp experiments were acquired using an […] amplifier (Molecular Devices). Pipettes were pulled using a Flaming/Brown micropipette puller (P-97, Sutter Instruments) and flame-polished using a MF-830 microforge (Narishige). Electrode resistance after filling with pipette internal solution ranged from 2 to 5 MΩ. Currents were low-pass filtered at 2 kHz and sampled at 10 kHz. Pipette solution contained the following: 145 mM KCl, 3 mM MgCl2, 5 mM EGTA and 20 mM HEPES (pH 7.2 with KOH). Bath solution contained the following: 145 mM NaCl, 5 mM KCl, 1 mM CaCl2, 3 mM MgCl2 and 20 mM HEPES (pH 7.4 with NaOH). K2P2.1 currents were elicited by a 1 s ramp from −100 to +50 mV from a −80 mV holding potential. Current-clamp recordings were taken with no holding current (I=0). Only K2P2.1(TREK-1)^CG* whole-cell patches with basal currents between […] at 0 mV were used Criteria for A286F K2P2.1(TREK-1)^CG*. ML335 or CAT335 were applied at 20 μM in bath solution and were perfused at 3 ml min^−1 until potentiation stabilized (1-3 min). Data were analyzed using Clampfit 11 and GraphPad Prism 9.
# [2] = biological target: T2, TREK-1^CG* (Mus musculus, UniProt P97438, S146C); test: Whole-cell patch clamp in transfected HEK293 cells; format: cell-based; conditions: 20 μM; for Fold-activation (I activator/I control): whole-cell currents
# T2 construct: expressed in transfected cells; host or cells: HEK293 (pIRES2-EGFP vector)
# T2 sequence (P97438 1-411 isoform P97438-2 S131C): T1 sequence (P97438 1-411 isoform P97438-2) with S131C
# From the text: as §1, §2, §3
SMILES,Reversibility of activation on washout [1],Fold-activation (I activator/I control) [1] [fold],Reversibility of activation on washout [2],Fold-activation (I activator/I control) [2] [fold]
O=C(NCc1ccc(Cl)cc1Cl)c1ccc(N2C(=O)C=CC2=O)cc1 [CAT335],fully reversible,1.9 ± 0.2,irreversible,8.5 ± 1.5
"CS(=O)(=O)Nc1ccc(C(=O)NCc2ccc(Cl)cc2Cl)cc1 [ML335, reference compound]",,6.2 ± 0.5,,3.7 ± 0.4
